Laboratory results as given in patent US9156790B2, “Anticancer P21-activated kinase inhibitors” (Ohio State Innovation Foundation, priority 2013, dated 2015).
Where two headings read alike, the source gives them in different places.

Assays:
FTC133 cells = test: MTT cell viability assay, FTC133; type: cell-based, Human; details: Homo sapiens, FTC-133, 72-hours of exposure, 1% FBS, mean±standard deviation (n=3), read-out: IC50 for reducing viability of FTC133 cells versus DMSO control
Excerpt: Human thyroid cancer BCPAP, TPC1, and FTC133 cell lines were the generous gifts of Drs. Rebecca Schweppe and Bryan Haugen (University of Colorado Denver) (Schweppe et al., The Journal of clinical endocrinology and metabolism 83:4331-4341 (2008)) with permission from the following originating laboratories: BCPAP—Dr. Fabien, Centre Hospitalier Lyon-Sud, France (Fabien et al., Cancer 73:2206-2212 (1994)); TPC1—Dr. Sato, Kanazawa University, Japan (Tanaka et al., Virology 161:62-411 (1987)); and FTC133—Dr. Goretzki, University of Leipzig, Germany (Goretzki et al., Recent Results Cancer Res 118:48-63 (1990)). The obtained cell lines were confirmed for identity by DNA fingerprinting. BCPAP was grown in RPMI 1640 medium (Life Technologies Co., Carlsbad, Calif.) while FTC133 and TPC1 were grown in DMEM (Life Technologies Co.), both supplemented with 10% fetal bovine serum (FBS) and NEAA unless as noted for experiments.
The effect of OSU-03012 and its derivatives on cell viability was assessed by using the 3-(4,5-dimethylthiazol-2-yl)-2,5-diphenyl-2H-tetrazolium bromide (MTT) assay. Three replicates were performed in each individual experiment, and experiments were repeated at least three separate times. Cells were grown in 96-well plates for 24 hours and were exposed to various concentrations of drugs dissolved in DMSO (final concentration 0.1%) in RPMI 1640 or DMEM containing 1% FBS for 72 hours. 10 μL of 0.5 mg/ml MTT was added to each well and cells were incubated in CO2 at 37° C. for 2 hours. Supernatants were removed from the wells, the reduced MTT dye was solubilized in 100 μL of solution C (12 ml of 1N HCl in 300 mL of isopropanol), and absorbance at 570 nm was determined on a microplate reader.
We assessed the ability of the compounds to reduce cell viability in vitro by MTT assay after 72 hours of continuous exposure. Results are shown in Table 1 and are depicted as the IC50 vs. simultaneously performed DMSO control.
^aThe reported IC50 values are concentrations at which BCPAP, FTC133 and TPC1 cell viability by MTT assays 50% of DMSO control after 72-hours of exposure. Data are presented as mean±standard deviation (n=3). PAK and PDK1 Selectivity In Vivo

CDK1/cyclinB = CDK1/cyclinB (Homo sapiens, UniProt P06493); test: Kinase profiling panel: CDK1/cyclinB; type: biochemical; details: 5 μM compound; average of triplicate
Protocol: (§1) To further probe the selectivity of the compounds 4 and 15, they were subjected for kinase profiling service for screening against a panel of other kinases selected based on the kinase tree at 5 μM concentration, at or above the IC50 for the two compounds versus PAK in both in vitro and cell-based assays. […] PAK1 was not available for testing using this system thus it was not possible to compare directly in this assay system.

CHK1 = CHK1 (Homo sapiens, UniProt O14757); test: Kinase profiling panel: CHK1; type: biochemical; details: 5 μM compound; average of triplicate
Protocol: as §1

FAK = FAK (Homo sapiens, UniProt Q05397); test: Kinase profiling panel: FAK; type: biochemical; details: 5 μM compound; average of triplicate
Protocol: as §1

LIMK1 = LIMK1 (Homo sapiens, UniProt P53667); test: Kinase profiling panel: LIMK1; type: biochemical; details: 5 μM compound; average of triplicate
Protocol: as §1

PAK6 = PAK6 (Homo sapiens, UniProt Q9NQU5); test: Kinase profiling panel: PAK6; type: biochemical; details: 5 μM compound; average of triplicate
Protocol: as §1

PKBα = PKBα (Homo sapiens, UniProt P31749); test: Kinase profiling panel: PKBα; type: biochemical; details: read-out: % activity vs. DMSO, PKBα
Protocol: as §1

PKCδ = PKCδ (Homo sapiens, UniProt Q05655); test: Kinase profiling panel: PKCδ; type: biochemical; details: 5 μM compound; average of triplicate
Protocol: as §1

ROCK-I = ROCK-I (Homo sapiens, UniProt Q13464); test: Kinase profiling panel: ROCK-I; type: biochemical; details: 5 μM compound; average of triplicate
Protocol: as §1

[1] = system: BCPAP cells transfected with constitutively activated PAK1 cDNA; test: Migration rescue experiment with constitutively activated PAK1; type: cell-based, Human; details: 1 μM compound, 24 hours, P<0.05
Protocol: Myc-tagged constitutively activated (CA) PAK1 cDNAs was the generous gift of Dr. Jonathan Chernoff (Fox Chase Cancer Center, Philadelphia, Pa.). Sells et al., J Cell Biol 145:837-849 (1999). pRC/CMV and pcDNA3.1(+) vector were purchased from Life Technologies. BCPAP cells were grown in RPMI containing 10% FBS until 40-50% confluent. They were transfected with CAPAK1 cDNA or a vector control, washed with PBS, trypsinized with 0.05% Trypsin-EDTA 1× (Gibco) for 5-10 min, collected with 10% FBS RPMI, and centrifuged at 300 g for 5 min. Cells were resuspended with 0% FBS RPMI and counted using Countess™ (Invitrogen). Then a volume of 1×10^5 cells suspended in 300 μl of 0% FBS RPMI was placed into Boyden chamber inserts (8 μm pore). The inserts were placed into wells of a 24 well plate filled with 400 μl of 0% FBS RPMI. The plate was incubated at 37° C. 5% CO2 for 1 hour. Then 30 μl (1 μM) of either compound 4 or 15 was added to the inserts and then incubated again for 1 hour. The inserts were transferred into different wells filled with 400 μl of 10% FBS RPMI. After incubation for 24 hours, the cells on either side of the insert membrane were fixed and quantified as above. Experiments were performed in triplicate on three occasions.
Because the compounds are multikinase inhibitors, we next sought to determine if PAK1 inhibition was responsible for some of the biological effects of the compounds. […]

Chain of LIMK1 (P53667 whole entry, species assumed): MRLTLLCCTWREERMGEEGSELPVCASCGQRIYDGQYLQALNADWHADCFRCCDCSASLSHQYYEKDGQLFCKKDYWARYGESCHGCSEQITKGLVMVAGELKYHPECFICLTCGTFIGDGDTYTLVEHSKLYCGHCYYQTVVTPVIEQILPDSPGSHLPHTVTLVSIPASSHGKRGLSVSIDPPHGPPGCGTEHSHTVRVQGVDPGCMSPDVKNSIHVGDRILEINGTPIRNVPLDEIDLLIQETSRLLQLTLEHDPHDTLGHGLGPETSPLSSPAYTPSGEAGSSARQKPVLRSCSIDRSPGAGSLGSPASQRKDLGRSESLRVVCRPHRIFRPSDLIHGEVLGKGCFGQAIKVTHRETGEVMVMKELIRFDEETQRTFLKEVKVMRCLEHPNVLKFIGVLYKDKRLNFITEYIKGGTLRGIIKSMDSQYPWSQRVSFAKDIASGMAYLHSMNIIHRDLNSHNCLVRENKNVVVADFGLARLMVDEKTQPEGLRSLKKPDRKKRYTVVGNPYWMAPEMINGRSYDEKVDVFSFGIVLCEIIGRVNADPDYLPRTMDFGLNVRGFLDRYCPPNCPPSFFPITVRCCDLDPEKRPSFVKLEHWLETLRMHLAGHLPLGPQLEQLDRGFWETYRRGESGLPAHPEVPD
Chain of PKBα (P31749 whole entry, species assumed): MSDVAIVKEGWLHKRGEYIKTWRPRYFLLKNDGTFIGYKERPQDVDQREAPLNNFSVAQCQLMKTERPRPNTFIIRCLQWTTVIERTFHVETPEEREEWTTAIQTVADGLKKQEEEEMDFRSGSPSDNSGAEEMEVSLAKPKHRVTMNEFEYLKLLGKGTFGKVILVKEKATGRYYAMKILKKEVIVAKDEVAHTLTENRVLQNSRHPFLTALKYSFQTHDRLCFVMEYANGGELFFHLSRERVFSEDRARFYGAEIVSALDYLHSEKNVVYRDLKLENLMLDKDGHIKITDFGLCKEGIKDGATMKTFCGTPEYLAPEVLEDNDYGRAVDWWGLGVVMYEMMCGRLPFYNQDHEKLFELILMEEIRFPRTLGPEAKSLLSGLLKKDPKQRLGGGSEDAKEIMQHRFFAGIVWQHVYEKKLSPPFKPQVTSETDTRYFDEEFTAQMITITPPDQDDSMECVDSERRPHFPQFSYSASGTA
Chain of CHK1 (O14757 whole entry, species assumed): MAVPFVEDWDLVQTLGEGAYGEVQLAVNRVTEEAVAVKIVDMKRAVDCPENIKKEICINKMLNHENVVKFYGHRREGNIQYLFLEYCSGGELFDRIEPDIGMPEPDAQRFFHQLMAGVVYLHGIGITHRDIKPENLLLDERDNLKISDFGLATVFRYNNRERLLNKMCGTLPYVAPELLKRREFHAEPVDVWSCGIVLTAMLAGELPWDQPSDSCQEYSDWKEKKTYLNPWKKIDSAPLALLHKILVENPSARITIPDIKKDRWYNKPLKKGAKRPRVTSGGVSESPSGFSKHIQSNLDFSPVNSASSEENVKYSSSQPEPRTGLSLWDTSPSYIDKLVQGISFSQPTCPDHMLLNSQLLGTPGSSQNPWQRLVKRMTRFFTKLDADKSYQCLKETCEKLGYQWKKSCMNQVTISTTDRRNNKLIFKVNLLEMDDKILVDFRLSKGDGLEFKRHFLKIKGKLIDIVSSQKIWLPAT
Chain of FAK (Q05397 whole entry, species assumed): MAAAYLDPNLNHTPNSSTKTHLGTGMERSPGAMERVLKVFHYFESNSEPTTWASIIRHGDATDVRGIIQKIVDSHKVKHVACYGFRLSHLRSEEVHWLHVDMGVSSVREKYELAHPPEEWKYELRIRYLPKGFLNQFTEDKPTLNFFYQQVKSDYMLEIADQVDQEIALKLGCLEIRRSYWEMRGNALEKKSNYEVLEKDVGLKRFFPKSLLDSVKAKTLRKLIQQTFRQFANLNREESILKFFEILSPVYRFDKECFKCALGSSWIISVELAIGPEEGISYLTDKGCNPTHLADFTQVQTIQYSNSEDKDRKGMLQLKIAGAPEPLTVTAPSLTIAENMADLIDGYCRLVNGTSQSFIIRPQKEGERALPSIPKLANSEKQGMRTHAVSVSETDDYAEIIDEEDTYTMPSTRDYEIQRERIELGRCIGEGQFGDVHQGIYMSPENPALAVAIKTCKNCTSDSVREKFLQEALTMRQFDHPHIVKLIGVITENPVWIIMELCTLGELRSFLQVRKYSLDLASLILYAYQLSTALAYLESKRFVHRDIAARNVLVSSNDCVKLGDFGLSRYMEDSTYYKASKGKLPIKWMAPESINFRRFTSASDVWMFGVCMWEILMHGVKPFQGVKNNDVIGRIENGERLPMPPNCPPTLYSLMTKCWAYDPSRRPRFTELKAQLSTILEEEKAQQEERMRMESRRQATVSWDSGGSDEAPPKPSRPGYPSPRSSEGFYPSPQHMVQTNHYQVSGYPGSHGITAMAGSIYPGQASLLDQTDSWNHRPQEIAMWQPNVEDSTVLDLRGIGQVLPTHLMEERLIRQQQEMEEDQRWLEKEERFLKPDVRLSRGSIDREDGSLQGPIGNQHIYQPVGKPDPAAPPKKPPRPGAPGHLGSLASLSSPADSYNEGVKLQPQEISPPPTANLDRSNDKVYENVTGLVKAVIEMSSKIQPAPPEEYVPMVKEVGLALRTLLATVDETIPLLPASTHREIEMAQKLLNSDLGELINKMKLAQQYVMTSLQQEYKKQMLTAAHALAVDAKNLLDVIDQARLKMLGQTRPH
Chain of PKCδ (Q05655 whole entry): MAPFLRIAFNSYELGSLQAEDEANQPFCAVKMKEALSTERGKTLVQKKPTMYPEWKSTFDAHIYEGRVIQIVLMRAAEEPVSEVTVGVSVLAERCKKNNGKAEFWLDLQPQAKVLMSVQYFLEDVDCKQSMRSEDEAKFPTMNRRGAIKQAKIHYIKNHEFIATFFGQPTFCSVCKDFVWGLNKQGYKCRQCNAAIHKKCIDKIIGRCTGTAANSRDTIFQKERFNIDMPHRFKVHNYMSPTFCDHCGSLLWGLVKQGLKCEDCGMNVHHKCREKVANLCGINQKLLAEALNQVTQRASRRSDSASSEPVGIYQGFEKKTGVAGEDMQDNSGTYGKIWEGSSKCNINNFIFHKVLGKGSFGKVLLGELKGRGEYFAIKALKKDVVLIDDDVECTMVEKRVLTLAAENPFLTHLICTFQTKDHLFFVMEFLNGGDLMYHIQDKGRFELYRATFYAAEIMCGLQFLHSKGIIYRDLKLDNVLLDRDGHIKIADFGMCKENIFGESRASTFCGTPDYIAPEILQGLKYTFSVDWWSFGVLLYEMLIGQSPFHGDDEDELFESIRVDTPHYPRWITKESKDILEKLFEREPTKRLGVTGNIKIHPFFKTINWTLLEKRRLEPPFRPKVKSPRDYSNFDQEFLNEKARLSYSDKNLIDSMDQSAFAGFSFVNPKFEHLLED
Chain of PAK6 (Q9NQU5 whole entry, species assumed): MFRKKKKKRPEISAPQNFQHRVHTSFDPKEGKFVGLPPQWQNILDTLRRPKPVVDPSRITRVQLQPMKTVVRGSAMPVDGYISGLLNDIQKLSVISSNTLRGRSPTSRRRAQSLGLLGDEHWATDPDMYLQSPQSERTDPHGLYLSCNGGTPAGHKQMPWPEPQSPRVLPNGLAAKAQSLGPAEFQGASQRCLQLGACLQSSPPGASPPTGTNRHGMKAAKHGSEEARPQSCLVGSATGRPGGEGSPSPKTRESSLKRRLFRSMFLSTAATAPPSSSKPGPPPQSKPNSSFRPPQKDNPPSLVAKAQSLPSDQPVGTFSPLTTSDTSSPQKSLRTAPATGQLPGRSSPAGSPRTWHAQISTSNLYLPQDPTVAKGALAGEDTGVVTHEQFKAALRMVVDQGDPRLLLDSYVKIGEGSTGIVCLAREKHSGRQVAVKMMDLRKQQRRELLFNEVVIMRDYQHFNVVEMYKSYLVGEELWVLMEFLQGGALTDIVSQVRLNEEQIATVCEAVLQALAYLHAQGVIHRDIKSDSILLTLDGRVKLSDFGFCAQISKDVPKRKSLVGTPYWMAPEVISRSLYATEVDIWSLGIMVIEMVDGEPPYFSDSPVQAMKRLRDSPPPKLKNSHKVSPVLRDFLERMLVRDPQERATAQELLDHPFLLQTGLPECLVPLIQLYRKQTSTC
Chain of CDK1/cyclinB (P06493 whole entry, species assumed): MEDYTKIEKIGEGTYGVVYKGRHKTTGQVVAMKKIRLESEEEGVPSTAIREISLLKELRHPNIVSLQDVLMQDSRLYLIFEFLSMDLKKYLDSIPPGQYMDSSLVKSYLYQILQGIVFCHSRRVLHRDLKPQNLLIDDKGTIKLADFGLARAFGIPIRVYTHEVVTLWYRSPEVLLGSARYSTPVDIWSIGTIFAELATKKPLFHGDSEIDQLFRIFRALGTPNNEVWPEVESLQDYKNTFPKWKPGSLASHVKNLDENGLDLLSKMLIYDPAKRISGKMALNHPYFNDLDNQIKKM
Chain of CDK1/cyclinB (P14635 whole entry partner, species assumed): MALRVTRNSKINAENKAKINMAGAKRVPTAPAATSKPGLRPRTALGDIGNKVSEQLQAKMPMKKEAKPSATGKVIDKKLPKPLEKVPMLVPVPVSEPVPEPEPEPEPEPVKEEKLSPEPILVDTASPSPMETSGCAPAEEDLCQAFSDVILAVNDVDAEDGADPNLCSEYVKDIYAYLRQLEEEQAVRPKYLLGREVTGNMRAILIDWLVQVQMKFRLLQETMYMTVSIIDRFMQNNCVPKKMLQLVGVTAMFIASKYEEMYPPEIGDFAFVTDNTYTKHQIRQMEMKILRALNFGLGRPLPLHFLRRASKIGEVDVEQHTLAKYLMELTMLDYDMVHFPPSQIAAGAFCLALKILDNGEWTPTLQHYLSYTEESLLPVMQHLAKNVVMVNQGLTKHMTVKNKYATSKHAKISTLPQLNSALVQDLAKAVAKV

CC(C)NC(=O)c1cc(-c2ccc3ccc4ccccc4c3c2)n(-c2ccc(NC(=O)CN)cc2)n1 [Compound 15, 1-(4-(2-Aminoacetamido)phenyl)-N-isopropyl-5-(phenanthren-3-yl)-1H-pyrazole-3-carboxamide]
IC50 (FTC133 cells): 3.37 ± 3.31 µM
% activity vs. DMSO, CDK1/cyclinB (CDK1/cyclinB): 95%
% activity vs. DMSO, CHK1 (CHK1): 89%
% activity vs. DMSO, FAK (FAK): 96%
% activity vs. DMSO, LIMK1 (LIMK1): 117%
% activity vs. DMSO, PAK6 (PAK6): 101%
remaining activity at 5 µM (PKBα): 99%
% activity vs. DMSO, PKCδ (PKCδ): 110%
% activity vs. DMSO, ROCK-I (ROCK-I): 95%
Rescue of anti-migratory effect by constitutively activated PAK1 [1]: rescued

NCCC(=O)Nc1ccc(-n2nc(C(F)(F)F)cc2-c2ccc3ccc4ccccc4c3c2)cc1 [Compound 4, 3-amino-N-(4-(5-(phenanthren-3-yl)-3-(trifluoromethyl)-1H-pyrazol-1-yl)phenyl)-propanamide]
IC50 (FTC133 cells): 2.68 ± 2.08 µM
% activity vs. DMSO, CDK1/cyclinB (CDK1/cyclinB): 83%
% activity vs. DMSO, CHK1 (CHK1): 82%
% activity vs. DMSO, FAK (FAK): 87%
% activity vs. DMSO, LIMK1 (LIMK1): 130%
% activity vs. DMSO, PAK6 (PAK6): 81%
remaining activity at 5 µM (PKBα; 5 μM compound, average of triplicate): 103%
% activity vs. DMSO, PKCδ (PKCδ): 85%
% activity vs. DMSO, ROCK-I (ROCK-I): 93%
Rescue of anti-migratory effect by constitutively activated PAK1 [1]: rescued
